According to publication PMC10799935, “Discovery of a peripheral 5HT2A antagonist as a clinical candidate for metabolic dysfunction-associated steatohepatitis” (Nature Communications, 2024):
Several values for one entry are separate records, joined by “and”; a condition that tells them apart may be missing. Identical values can stand only once. Entries after “also recorded” stand apart in the source; their conditions may differ.

Experiments:
[1] = Hepatocyte stability test, human; format: in vitro ADME; settings: both sexes, cryopreserved hepatocytes, pH 7.4, read-out: Hepatocyte stability (% remaining after 3 h)
Protocol: Hepatocyte incubations for the test compound (10 μM final concentration, n = 2 per each time point) were carried out in mouse, rat, dog, monkey and human cryopreserved hepatocytes, resuspended at a density of 0.5 million cells/ml of modified Krebs-Henseleit buffer (KHB). The information regarding the hepatocytes used in the experiment is as follows: liverPool® 10-donor mixed gender human (BioIVT, Cat.No. X008001, lot EAV), male cynomolgus monkey (BioIVT, Cat.No. M00305, lot COJ), male Beagle dog (BioIVT, Cat.No. M00205, lot USY), male Sprague Dawley rat (BioIVT, Cat.No. M00005, lot TQE) and male CD1 mouse (BioIVT, Cat.No.005052, lot LFF). In addition, the compound was also incubated with blank KHB. The final concentration of solvent (DMSO) was 0.1% of the final volume. The incubations were performed for 3 hours at 37°C and pH 7.4. Reactions were terminated at 0 and 180 minutes by the addition of 3 volumes of stop solution (acetonitrile/methanol (2:1, v/v) containing internal standard–diclofenac at 100 ng/ml). Samples (compound spiked buffer and compound spiked hepatocytes, as well as blank samples, i.e. hepatocytes with the same DMSO%) were then centrifuged and aliquots were transferred to 96-deep micronic tubes and frozen at -80 °C until LC-MS/MS analysis. […]

[2] = AMES test (mutagenic potential)
[3] = system: lipogenesis-related genes; assay: DIO mice: qRT-PCR of lipogenesis-related genes in liver; format: in vivo, mouse; settings: for Fasn gene expression, Predicted (LS) mean diff. / Htr2a gene expression, Predicted (LS) mean diff. / Pparγ gene expression, Predicted (LS) mean diff. / Srebp1c gene expression, Predicted (LS) mean diff.: Tukey's multiple comparisons test; for Fasn gene expression, Predicted (LS) mean / Htr2a gene expression, Predicted (LS) mean / Pparγ gene expression, Predicted (LS) mean / Srebp1c gene expression, Predicted (LS) mean: vehicle = 1
Protocol: Total RNA extractions from harvested tissues were performed using TRIzol according to the manufacturer’s protocol. After TURBO DNase (Invitrogen) treatment, 2 μg of total RNA was used to generate complementary DNA with a High-Capacity cDNA Reverse Transcription Kit (Thermo Fisher Scientific). Quantitative RT-PCR was performed with Fast SYBR Green Master Mix (Thermo Fisher Scientific) and a Viia 7 Real-time PCR System (Thermo Fisher Scientific) according to the manufacturer’s instructions. Gene expression was relatively quantified based on the delta-delta Ct (threshold cycle) method with the beta-actin gene as a reference gene. The sequence of primers can be found in the Supporting Information (Supplementary Table 2).

α-SMA = assay: CDAHFD mice: α-SMA immunohistochemical staining; format: in vivo, mouse; parameters: α-SMA immunohistochemical staining (a-SMA area), individual mouse / α-SMA immunohistochemical staining (a-SMA area), Average: unit not given here; settings: for α-SMA immunohistochemical staining (a-SMA area), Average / α-SMA immunohistochemical staining (a-SMA area), individual mouse: CDAHFD mice; for α-SMA immunohistochemical staining (a-SMA area), Average: group average n=5, CDAHFD+Vehicle 6.348, Vehicle 0.808; for α-SMA immunohistochemical staining (a-SMA area), individual mouse: individual animals No. 1-5 (Fig.4f)
From the text: C57BL/6 J male mice were purchased from the Japan SLC. Inc (Hamamatsu, Japan). Mice (5 weeks old) were fed Teklad Certitied Irradiated Global 18% protein rodent diet purchased from Dooyeol Biotech Co. Ltd (Seoul, South Korea) during the acclimation period. The liver fibrosis/inflammation-induced groups were CDAHFD-fed (A06071302, Research diet). […] All animal experiments complied with the relevant ethical regulations.
Mouse liver tissues were fixed in 4% formalin solution (Sigma–Aldrich, St. Louis, MO, USA) and embedded in paraffin. 4-μm-thick liver sections were deparaffinized in xylene, and rehydrated through descending grades of ethanol. To evaluate liver fibrosis, sections were stained with Sirius red solution and subjected to immunohistochemical staining. Tissue sections, after deparaffinization, underwent a 16-hour incubation in a solution containing 0.1% Direct Red 80 (365548, Sigma-Aldrich) dissolved in Picric acid (P-201, Spectrum Chemical, CA, USA) for Sirius red staining. The sections were briefly immersed in a 0.01 N HCl solution (1129, Ducksan, Republic of Korea) for 2 min. and then rinsed with distilled water for destaining. Subsequently, the sections underwent dehydration through […] grades of ethanol. Immunohistochemical staining was performed using the Polyview Plus HRP-DAB (anti-Rabbit) Kit (ENZ-KIT159-0150, ENZO Life Science, NY, USA) following the manufacturers’ instructions. Deparaffinized sections were boiled in IHC-TekTM Epitope Retrieval solution (IW-1100, IHCWORLD, MD, USA) for 45 min., cooled for 1 h, incubated in a 3% H2O2 solution (69355-0350, JUNSEI, Japan) for 15 min., washed, and then incubated overnight with primary antibodies (α-SMA, ab5694, Abcam, 1:500 dilution; TNF-α, ab6671, Abcam, 1:100 dilution and IL-1β, ab9722, Abcam, 1:100 dilution). Subsequently, the sections were treated with Polyview Plus HRP for 2 h and developed with DAB chromogen/substrate. Stained […] sections were confirmed by light microscopy (Olympus BX53 upright microscope, Tokyo, Japan). The degree of hepatic fibrosis and immunohistochemical staining was quantified by morphometric analysis of stained liver sections using NIH ImageJ software.

in vitro = settings: mouse
5HT2A = 5HT2A (Homo sapiens, UniProt P28223); assay: Human 5HT2A inhibition assay (FLIPR calcium 6, 5HT stimulus, stably transfected HEK293 cells); format: cell-based; parameters: expressed in transfected cells; host or cells: HEK293; settings: HEK293, 1 μM; read-out: % Inhibition at 1 μM (SD)
Protocol: The derivatives were evaluated at a concentration of 1 μM for their antagonist activity on the 5HT2A receptor (Tables 1–3)[33],[34]. […] The cells were stained with 100 μL of cytosolic calcium dye using the FLIPR calcium 6 assay solution (Molecular devices, #R8190) supplemented with 2.5 mM probenecid (Sigma; P8761) and incubated for 1 h at 37 °C. After 1 h, the designated amount of the compound was treated in each well and incubated for another 1 h at 37 °C. […] Experimental conditions for the 5HT subtypes can be found in the Supporting Information (Supplementary Table 1).

5HT2A, sequence (P28223 whole entry): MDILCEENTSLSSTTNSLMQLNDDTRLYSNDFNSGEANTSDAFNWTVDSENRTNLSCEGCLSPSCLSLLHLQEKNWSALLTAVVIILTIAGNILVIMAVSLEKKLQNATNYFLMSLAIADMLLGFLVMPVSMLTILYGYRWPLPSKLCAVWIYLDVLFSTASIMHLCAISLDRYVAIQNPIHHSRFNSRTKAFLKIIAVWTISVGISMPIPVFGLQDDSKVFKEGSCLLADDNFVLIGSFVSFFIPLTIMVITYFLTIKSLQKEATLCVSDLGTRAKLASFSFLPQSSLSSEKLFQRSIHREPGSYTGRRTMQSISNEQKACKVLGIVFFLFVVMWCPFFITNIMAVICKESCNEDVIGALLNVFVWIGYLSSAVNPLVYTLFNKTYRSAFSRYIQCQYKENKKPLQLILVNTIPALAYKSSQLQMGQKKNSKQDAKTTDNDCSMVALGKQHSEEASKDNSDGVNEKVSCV

## Cc1nc2n(c(=O)c1CCN1CCC(=C3c4ccc(Cl)cc4CCc4cccnc43)CC1)CCCC2O (centres unmarked) [Compound 11c]
[1]
  remaining at 3 h, 10 μM: 94%
[2]
  AMES: didn’t show mutagenic potential; also recorded: Negative
[3]; 11c 5mpk vs. 11c 10mpk
  Fasn gene expression, Predicted (LS) mean diff.: 0.1848
  Htr2a gene expression, Predicted (LS) mean diff.: 0.09643
  Pparγ gene expression, Predicted (LS) mean diff.: -0.1385
  Srebp1c gene expression, Predicted (LS) mean diff.: 0.2716
[3]; 11c 5mpk
  Fasn gene expression, Predicted (LS) mean: 0.7446
  Htr2a gene expression, Predicted (LS) mean: 0.5102
  Pparγ gene expression, Predicted (LS) mean: 0.8935
  Srebp1c gene expression, Predicted (LS) mean: 0.7676
[3]; 11c 10mpk
  Fasn gene expression, Predicted (LS) mean: 0.5598
  Htr2a gene expression, Predicted (LS) mean: 0.4138
  Pparγ gene expression, Predicted (LS) mean: 1.032
  Srebp1c gene expression, Predicted (LS) mean: 0.496
[3]; DIO mice, 10mpk
  expression of Fasn: decreased
  expression of Srebp1c: reduced
[3]; DIO mice, liver, vs vehicle
  expression of lipogenesis-related genes: reduced
[3]; Vehicle vs. 11c 5mpk
  Fasn gene expression, Predicted (LS) mean diff.: 0.2554
  Htr2a gene expression, Predicted (LS) mean diff.: 0.4898
  Pparγ gene expression, Predicted (LS) mean diff.: 0.1065
  Srebp1c gene expression, Predicted (LS) mean diff.: 0.2324
[3]; Vehicle vs. 11c 10mpk
  Fasn gene expression, Predicted (LS) mean diff.: 0.4402
  Htr2a gene expression, Predicted (LS) mean diff.: 0.5862
  Pparγ gene expression, Predicted (LS) mean diff.: -0.03198
  Srebp1c gene expression, Predicted (LS) mean diff.: 0.504
α-SMA; 11c 5 mpk
  α-SMA immunohistochemical staining (a-SMA area), Average: 2.563
  α-SMA immunohistochemical staining (a-SMA area), individual mouse: 2.929 and 2.447 and 3.505 and 2.773 and 1.159
α-SMA; 11c 10mpk
  α-SMA immunohistochemical staining (a-SMA area), Average: 3.310
  α-SMA immunohistochemical staining (a-SMA area), individual mouse: 3.665 and 3.079 and 3.824 and 3.446 and 2.538
α-SMA; CDAHFD-fed 11c vs CDAHFD-fed vehicle group
  α-SMA expression (immunohistochemical staining): significant decrease
In vitro
  IC50: > 100 µM
5HT2A
  inhibition at 1 µM: 92.56 ± 0.77%
